PubChem BioAssay (NCI)
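Grown in 96-well plates, cells were treated for 48 hours with each compound at five concentrations. Insufficient inhibition: endpoint recorded as highest concentration tested. TGI: total growth inhibition.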

Tests used:
Test in all cases: NCI anticancer screen, dose series, 48 h
786-0 renal = tested on: 786-0 renal
A498 renal = tested on: A498 renal
A549 NSCLC = tested on: A549 NSCLC
ACHN renal = tested on: ACHN renal
CAKI-1 renal = tested on: CAKI-1 renal
CCRF-CEM leukemia = tested on: CCRF-CEM leukemia
COLO 205 colon = tested on: COLO 205 colon
DU-145 prostate = tested on: DU-145 prostate
EKVX NSCLC = tested on: EKVX NSCLC
HCC-2998 colon = tested on: HCC-2998 colon
HCT-116 colon = tested on: HCT-116 colon
HL-60(TB) leukemia = tested on: HL-60(TB) leukemia
HOP-92 NSCLC = tested on: HOP-92 NSCLC
HS 578T breast = tested on: HS 578T breast
HT29 colon = tested on: HT29 colon
IGROV1 ovarian = tested on: IGROV1 ovarian
K-562 leukemia = tested on: K-562 leukemia
KM12 colon = tested on: KM12 colon
LOX IMVI melanoma = tested on: LOX IMVI melanoma
M14 melanoma = tested on: M14 melanoma
MALME-3M melanoma = tested on: MALME-3M melanoma
MCF7 breast = tested on: MCF7 breast
MDA-MB-435 = tested on: MDA-MB-435
MDA-N = tested on: MDA-N
MOLT-4 leukemia = tested on: MOLT-4 leukemia
NCI-H226 lung = tested on: NCI-H226 lung
NCI-H23 lung = tested on: NCI-H23 lung
NCI-H460 lung = tested on: NCI-H460 lung
NCI-H522 lung = tested on: NCI-H522 lung
NCI/ADR-RES ovarian = tested on: NCI/ADR-RES ovarian
OVCAR-3 ovarian = tested on: OVCAR-3 ovarian
OVCAR-4 ovarian = tested on: OVCAR-4 ovarian
OVCAR-5 ovarian = tested on: OVCAR-5 ovarian
OVCAR-8 ovarian = tested on: OVCAR-8 ovarian
PC-3 prostate = tested on: PC-3 prostate
RPMI-8226 leukemia = tested on: RPMI-8226 leukemia
RXF 393 renal = tested on: RXF 393 renal
SF-268 CNS = tested on: SF-268 CNS
SF-295 CNS = tested on: SF-295 CNS
SK-MEL-28 melanoma = tested on: SK-MEL-28 melanoma
SK-MEL-5 melanoma = tested on: SK-MEL-5 melanoma
SK-OV-3 ovarian = tested on: SK-OV-3 ovarian
SN12C renal = tested on: SN12C renal
SNB-19 CNS = tested on: SNB-19 CNS
SNB-75 CNS = tested on: SNB-75 CNS
SR leukemia = tested on: SR leukemia
SW-620 colon = tested on: SW-620 colon
TK-10 renal = tested on: TK-10 renal
UACC-257 melanoma = tested on: UACC-257 melanoma
UO-31 renal = tested on: UO-31 renal
BT-549 breast = tested on: BT-549 breast
HCT-15 colon = tested on: HCT-15 colon
HOP-62 NSCLC = tested on: HOP-62 NSCLC
MDA-MB-231 breast = tested on: MDA-MB-231 breast
SK-MEL-2 melanoma = tested on: SK-MEL-2 melanoma
T-47D breast = tested on: T-47D breast
U251 CNS = tested on: U251 CNS
SF-539 CNS = tested on: SF-539 CNS
UACC-62 melanoma = tested on: UACC-62 melanoma

CC(NC(=O)OC(C)(C)C)C(=O)NC1CCCC1 (configuration not stated)
TGI (786-0 renal): > 100 µM
TGI (A498 renal): > 100 µM
TGI (A549 NSCLC): > 100 µM
TGI (ACHN renal): > 100 µM
TGI (CAKI-1 renal): > 100 µM
TGI (CCRF-CEM leukemia): > 100 µM
TGI (COLO 205 colon): > 100 µM
TGI (DU-145 prostate): > 100 µM
TGI (EKVX NSCLC): > 100 µM
TGI (HCC-2998 colon): > 100 µM
TGI (HCT-116 colon): > 100 µM
TGI (HL-60(TB) leukemia): > 100 µM
TGI (HOP-92 NSCLC): > 100 µM
TGI (HS 578T breast): > 100 µM
TGI (HT29 colon): > 100 µM
TGI (IGROV1 ovarian): > 100 µM
TGI (K-562 leukemia): > 100 µM
TGI (KM12 colon): > 100 µM
TGI (LOX IMVI melanoma): > 100 µM
TGI (M14 melanoma): > 100 µM
TGI (MALME-3M melanoma): > 100 µM
TGI (MCF7 breast): > 100 µM
TGI (MDA-MB-435): > 100 µM
TGI (MDA-N): > 100 µM
TGI (MOLT-4 leukemia): > 100 µM
TGI (NCI-H226 lung): > 100 µM
TGI (NCI-H23 lung): > 100 µM
TGI (NCI-H460 lung): > 100 µM
TGI (NCI-H522 lung): > 100 µM
TGI (NCI/ADR-RES ovarian): > 100 µM
TGI (OVCAR-3 ovarian): > 100 µM
TGI (OVCAR-4 ovarian): > 100 µM
TGI (OVCAR-5 ovarian): > 100 µM
TGI (OVCAR-8 ovarian): > 100 µM
TGI (PC-3 prostate): > 100 µM
TGI (RPMI-8226 leukemia): > 100 µM
TGI (RXF 393 renal): > 100 µM
TGI (SF-268 CNS): > 100 µM
TGI (SF-295 CNS): > 100 µM
TGI (SK-MEL-28 melanoma): > 100 µM
TGI (SK-MEL-5 melanoma): > 100 µM
TGI (SK-OV-3 ovarian): > 100 µM
TGI (SN12C renal): > 100 µM
TGI (SNB-19 CNS): > 100 µM
TGI (SNB-75 CNS): > 100 µM
TGI (SR leukemia): > 100 µM
TGI (SW-620 colon): > 100 µM
TGI (TK-10 renal): > 100 µM
TGI (UACC-257 melanoma): > 100 µM
TGI (UO-31 renal): > 100 µM

CO/C(=N\N=C\c1ccccc1F)c1ccncc1
TGI (786-0 renal): > 10 µM
TGI (A549 NSCLC): > 10 µM
TGI (ACHN renal): > 10 µM
TGI (BT-549 breast): > 10 µM
TGI (CAKI-1 renal): > 10 µM
TGI (CCRF-CEM leukemia): > 10 µM
TGI (COLO 205 colon): > 10 µM
TGI (DU-145 prostate): > 10 µM
TGI (EKVX NSCLC): > 10 µM
TGI (HCC-2998 colon): > 10 µM
TGI (HCT-116 colon): > 10 µM
TGI (HCT-15 colon): > 10 µM
TGI (HL-60(TB) leukemia): > 10 µM
TGI (HOP-62 NSCLC): > 10 µM
TGI (HOP-92 NSCLC): > 10 µM
TGI (HT29 colon): > 10 µM
TGI (K-562 leukemia): > 10 µM
TGI (KM12 colon): > 10 µM
TGI (LOX IMVI melanoma): > 10 µM
TGI (M14 melanoma): > 10 µM
TGI (MALME-3M melanoma): > 10 µM
TGI (MCF7 breast): > 10 µM
TGI (MDA-MB-231 breast): > 10 µM
TGI (MDA-MB-435): > 10 µM
TGI (MDA-N): > 10 µM
TGI (MOLT-4 leukemia): > 10 µM
TGI (NCI-H226 lung): > 10 µM
TGI (NCI-H23 lung): > 10 µM
TGI (NCI-H460 lung): > 10 µM
TGI (NCI-H522 lung): > 10 µM
TGI (NCI/ADR-RES ovarian): > 10 µM
TGI (OVCAR-3 ovarian): > 10 µM
TGI (OVCAR-4 ovarian): > 10 µM
TGI (OVCAR-5 ovarian): > 10 µM
TGI (OVCAR-8 ovarian): > 10 µM
TGI (PC-3 prostate): > 10 µM
TGI (RPMI-8226 leukemia): > 10 µM
TGI (RXF 393 renal): > 10 µM
TGI (SF-268 CNS): > 10 µM
TGI (SF-295 CNS): > 10 µM
TGI (SK-MEL-2 melanoma): > 10 µM
TGI (SN12C renal): > 10 µM
TGI (SNB-19 CNS): > 10 µM
TGI (SR leukemia): > 10 µM
TGI (SW-620 colon): > 10 µM
TGI (T-47D breast): > 10 µM
TGI (TK-10 renal): > 10 µM
TGI (U251 CNS): > 10 µM
TGI (UACC-257 melanoma): > 10 µM
TGI (UO-31 renal): > 10 µM

O=C(CCC1CCCCC1)NCc1ccc(C(=O)O)cc1
TGI (786-0 renal): > 100 µM
TGI (A498 renal): > 100 µM
TGI (A549 NSCLC): > 100 µM
TGI (ACHN renal): > 100 µM
TGI (BT-549 breast): > 100 µM
TGI (CAKI-1 renal): > 100 µM
TGI (CCRF-CEM leukemia): > 100 µM
TGI (COLO 205 colon): > 100 µM
TGI (DU-145 prostate): > 100 µM
TGI (EKVX NSCLC): > 100 µM
TGI (HCC-2998 colon): > 100 µM
TGI (HCT-116 colon): > 100 µM
TGI (HCT-15 colon): > 100 µM
TGI (HOP-62 NSCLC): > 100 µM
TGI (HOP-92 NSCLC): > 100 µM
TGI (HT29 colon): > 100 µM
TGI (IGROV1 ovarian): > 100 µM
TGI (K-562 leukemia): > 100 µM
TGI (KM12 colon): > 100 µM
TGI (LOX IMVI melanoma): > 100 µM
TGI (M14 melanoma): > 100 µM
TGI (MALME-3M melanoma): > 100 µM
TGI (MCF7 breast): > 100 µM
TGI (MDA-MB-231 breast): > 100 µM
TGI (MDA-MB-435): > 100 µM
TGI (MDA-N): > 100 µM
TGI (MOLT-4 leukemia): > 100 µM
TGI (NCI-H226 lung): > 100 µM
TGI (NCI-H23 lung): > 100 µM
TGI (NCI-H460 lung): > 100 µM
TGI (NCI-H522 lung): > 100 µM
TGI (NCI/ADR-RES ovarian): > 100 µM
TGI (OVCAR-3 ovarian): > 100 µM
TGI (OVCAR-4 ovarian): > 100 µM
TGI (OVCAR-5 ovarian): > 100 µM
TGI (OVCAR-8 ovarian): > 100 µM
TGI (PC-3 prostate): > 100 µM
TGI (RPMI-8226 leukemia): > 100 µM
TGI (RXF 393 renal): > 100 µM
TGI (SF-268 CNS): > 100 µM
TGI (SF-295 CNS): > 100 µM
TGI (SF-539 CNS): > 100 µM
TGI (SK-MEL-2 melanoma): > 100 µM
TGI (SK-MEL-28 melanoma): > 100 µM
TGI (SK-MEL-5 melanoma): > 100 µM
TGI (SK-OV-3 ovarian): > 100 µM
TGI (SN12C renal): > 100 µM
TGI (SNB-19 CNS): > 100 µM
TGI (SNB-75 CNS): > 100 µM
TGI (SR leukemia): > 100 µM
TGI (SW-620 colon): > 100 µM
TGI (T-47D breast): > 100 µM
TGI (TK-10 renal): > 100 µM
TGI (U251 CNS): > 100 µM
TGI (UACC-257 melanoma): > 100 µM
TGI (UACC-62 melanoma): > 100 µM
TGI (UO-31 renal): > 100 µM
